# Values of other authors, collected in US5543414A, “Achiral amino acid acyl esters of ganciclovir and its derivatives” (priority 1994, dated 1996).
# Where a name gives a salt, the structure may show the parent alone. Read-outs that look alike come from different tables or passages of the source.
# How the values were obtained:
# [1] = not given; remark: listed apart in the source
# [2] = in vivo
# [3] = oral administration
# [4] = not given; remark: listed apart in the source
# [5] = test system: herpes simplex virus type 1 and type 2 strains; conditions: primary rabbit kidney cell cultures
# [6] = test system: epithelial and stromal herpes simplex keratitis and associated iritis; conditions: glycine ester: 1% eye drop formulation, rabbits; acyclovir: ointment
# [7] = not given; remark: listed apart in the source
# [8] = test system: viruses of the herpes family; conditions: e.g. herpes simplex, cytomegalovirus
# [9] = not given; remark: listed apart in the source
smiles,measurement,setting,value
CCC(C)C(N)C(=O)OCCOCn1cnc2c(=O)[nH]c(N)nc21 (centres unmarked) [isoleucine ester of acyclovir],absorption from the gut compared with other esters and acyclovir,"oral administration, preferably in the L-form",large increase in absorption from the gut after oral administration
Nc1ncc2ncn(COCCO)c2n1 [6-deoxy-acyclovir],absorption and plasma levels of the parent drugs,"[1]; oral administration, rats",efficient absorption from the gastro-intestinal tract and high plasma levels of the parent drugs
same,conversion to parent drug,[2],readily converted in vivo by the action of enzymes
CCC(=O)OCC(COC(=O)CC)OCn1cnc2c(=O)[nH]c(N)nc21 [dipropionate ester],more bioavailable than ganciclovir itself,[3],about 42%
"CC(N)C(=O)OCCOCn1cnc2c(=O)[nH]c(N)nc21 (racemic) [D,L-alanyl]",amounts of the parent drug in the urine compared with acyclovir,"[4]; rat, in vivo",greater amounts of the parent drug in the urine than acyclovir itself
CCC(C)C(N)C(=O)OCCOCn1cnc2c(=O)[nH]c(N)nc21 (racemic) [DL-isoleucyl],amounts of the parent drug in the urine compared with acyclovir,[4]; rats,greater amounts of the parent drug in the urine than acyclovir itself
Nc1nc2c(ncn2COCCOC(=O)[C@@H]2CCCN2)c(=O)[nH]1 [L-prolyl ester],amounts of the parent drug in the urine compared with acyclovir,"[4]; rat, in vivo",greater amounts of the parent drug in the urine than acyclovir itself
Nc1nc2c(ncn2COCCOC(=O)CCC(=O)O)c(=O)[nH]1 [sodium salt of the succinyl ester],activity against herpes simplex virus type 1 and type 2 compared with acyclovir,[5],almost as active as acyclovir itself
NCC(=O)OCCOCn1cnc2c(=O)[nH]c(N)nc21 [glycyl ester of acyclovir],efficacy in topical treatment of herpes simplex keratitis and iritis,[6],efficacious in the topical treatment of epithelial and stromal herpes simplex keratitis and associated iritis
same,amounts of the parent drug in the urine compared with acyclovir,[4]; rats,greater amounts of the parent drug in the urine than acyclovir itself
same,solubility greater than the solubility of acyclovir itself,[7],about 30 fold
CC(C)[C@H](N)C(=O)OCCOCn1cnc2c(=O)[nH]c(N)nc21 [L-valyl ester of acyclovir],amounts of the parent drug in the urine compared with acyclovir,[4]; rats,greater amounts of the parent drug in the urine than acyclovir itself
same,ranking as prodrug of acyclovir,[4]; rats,the best prodrug of the esters investigated
CSCC[C@H](N)C(=O)OCCOCn1cnc2c(=O)[nH]c(N)nc21 [L-methionyl],amounts of the parent drug in the urine compared with acyclovir,"[4]; rat, in vivo",greater amounts of the parent drug in the urine than acyclovir itself
CC[C@H](N)C(=O)OCCOCn1cnc2c(=O)[nH]c(N)nc21,amounts of the parent drug in the urine compared with acyclovir,"[4]; rat, in vivo",greater amounts of the parent drug in the urine than acyclovir itself
NCC(=O)OCCOCn1cnc2c(=O)[nH]c(N)nc21 [hydrochloride salt of the glycyl ester],activity against herpes simplex virus type 1 and type 2 compared with acyclovir,[5],almost as active as acyclovir itself
NCCC(=O)OCCOCn1cnc2c(=O)[nH]c(N)nc21 [hydrochloride salt of the β-alanyl ester],activity against herpes simplex virus type 1 and type 2 compared with acyclovir,[5],almost as active as acyclovir itself
"CC(C)C(N)C(=O)OCCOCn1cnc2c(=O)nc(N)[nH]c21 (racemic) [D,L-valyl]",amounts of the parent drug in the urine compared with acyclovir,"[4]; rat, in vivo",greater amounts of the parent drug in the urine than acyclovir itself
Nc1ncc2ncn(COC(CO)CO)c2n1 [6-deoxy-ganciclovir],absorption and plasma levels of the parent drugs,"[1]; rat, in vivo, po",efficient absorption from the gastro-intestinal tract and high plasma levels of the parent drugs
same,conversion to parent drug,[2],readily converted in vivo by the action of enzymes
CC[C@H](C)[C@H](N)C(=O)OCCOCn1cnc2c(=O)[nH]c(N)nc21 [L-isoleucyl],amounts of the parent drug in the urine compared with acyclovir,"[4]; rat, in vivo",greater amounts of the parent drug in the urine than acyclovir itself
"Nc1nc2c(ncn2COC(CO)CO)c(=O)[nH]1 [ganciclovir, 9-[(2-hydroxy-1-hydroxymethyl-ethoxy)methyl]-guanine]",antiviral activity,[8],"highly efficacious against viruses of the herpes family, for example, against herpes simplex and cytomegalovirus"
CC(N)C(=O)OCCOCn1cnc2c(=O)[nH]c(N)nc21 (centres unmarked) [hydrochloride salt of the alanyl ester],activity against herpes simplex virus type 1 and type 2 compared with acyclovir,[5],almost as active as acyclovir itself
"Nc1nc2c(ncn2COCCO)c(=O)[nH]1 [acyclovir, 2-(2-amino-1,6-dihydro-6-oxo-1,6-dihydro-purin-9-yl)methoxy-ethanol]",efficacy in topical treatment of herpes simplex keratitis and iritis,[6],hardly effective in stromal disease or iritis
same,antiviral activity,[8],good activity against herpes viruses such as herpes simplex
same,urinary recovery of acyclovir,"[4]; rat, in vivo, po",19%
same,water solubility,[9],limited solubility in water
CC(C)[C@H](N)C(=O)OCCOCn1cnc2c(=O)nc(N)[nH]c21 [valine ester of acyclovir],absorption from the gut compared with other esters and acyclovir,"in vivo, po",large increase in absorption from the gut after oral administration
C[C@H](N)C(=O)OCCOCn1cnc2c(=O)[nH]c(N)nc21 [L-alanyl],amounts of the parent drug in the urine compared with acyclovir,"[4]; rat, in vivo",greater amounts of the parent drug in the urine than acyclovir itself
